Experiment: Urine pharmacokinetics, single ascending dose and food effect studies
Assay type: in vivo, human
Conditions: for CLR (renal clearance) / Max_Rate (maximum observed excretion rate) / Total %fe / Total Ae: mean (SD); for Max_Rate (maximum observed excretion rate) / Total %fe / Total Ae / Tmax_Rate: urine; for Tmax_Rate: median (min, max)
Protocol: Blood samples (4 mL) were obtained by direct venipuncture into K2 EDTA tubes at 0.5 h pre-dose and at 0.5, 1, 1.5, 2, 2.5, 3, 5, 7, 9, 12, 24, 26, 28, 36, 48 and 144-hours post-dose. […] Urine samples for PK quantification were collected at pre-dose and 2, 5, 12, 24, 36 and 144-hours post-dose.
Determination of plasma and urine concentrations of VU319 and metabolite VU0481424 (VU424) was carried out in compliance with Good Laboratory Practice using a validated method at Illinois Institute of Technology Research Institute (IITRI) laboratories. Pharmacokinetic endpoints included the following VU319 parameters for plasma: area under the plasma concentration-time curve (AUC0 − 48); area under the plasma concentration-time curve extrapolated to infinity (AUC0−∞); percentage of the extrapolated area under the plasma concentration-time curve (%AUCextrap); maximum observed plasma concentration (Cmax); time (in hours) at which Cmax occurred (Tmax); clearance (Cl/F); elimination half-life (t1/2) and volume of distribution (Vd/F). Pharmacokinetic endpoints for VU319 for urine included the following parameters: renal clearance (CLu); amount excreted in urine (Ae) and percent excreted in urine (Ae%).
Single-dose PK parameters were derived from the plasma time concentrations and urinary concentrations. Pharmacokinetic parameters were summarized for each dose group using standard descriptive statistics. Summary statistics (mean, SD, min, max, coefficient of variation %) were calculated for each PK parameter. Plasma samples collected outside of the permitted windows (± 5 min for 0 to 48 h, inclusive; ±3 h for 72 to 144 h, inclusive) were flagged, footnoted in listings of PK concentration data, and excluded from the summary statistics and mean graphs of concentration data. However, these values were used in the calculation of the PK parameters and were also included in the individual concentration/time listings and figures. In this study, no concentration values were excluded due to implausibility.
Missing pre-dose PK concentrations were imputed as 0 in PK parameter calculations. Otherwise, missing data were not imputed. Actual post-dose sampling times were used in the calculation of plasma PK parameters and in the generation of individual concentration-time profiles. Nominal sampling times were used as a replacement for unknown or missing actual times and for the pre-dose values. Nominal sampling timepoints were used in the generation of mean plots and summary tables. For urine samples, nominal intervals were used. All PK analyses were performed using Statistical Analysis Software (SAS®; SAS Institute Inc., Cary, NC) version 9.4.

[1] = VU319 120 mg oral, fasted, food effect study
[2] = VU319 120 mg oral, fed, food effect study

Cn1cc2c(-c3cc(F)c(CN4Cc5ncccc5C4=O)c(F)c3)cccc2n1 [VU319]
CLR (renal clearance) (VU319 60 mg oral, SAD): 1.25 (0.303) mL/h | CLR (renal clearance) (VU319 120 mg oral, SAD): 1.16 (0.537) mL/h | CLR (renal clearance) [1]: 1.24 (0.36) mL/h | CLR (renal clearance) [2]: 1.48 (0.4) mL/h | CLR (renal clearance) (VU319 240 mg oral, SAD): 1.13 (0.657) mL/h | CLR (renal clearance) (VU319 400 mg oral, SAD): 0.97 (0.42) mL/h | CLR (renal clearance) (VU319 600 mg oral, SAD): 0.673 (0.34) mL/h | Total %fe (fraction of the dose excreted unchanged in urine) (all dose levels): < 0.1% | Max_Rate (maximum observed excretion rate) (VU319 60 mg oral, SAD): 0.0024 (0.0012) mg/h | Total %fe (VU319 60 mg oral, SAD): 0.075 (0.034) % | Total Ae (VU319 60 mg oral, SAD): 0.045 (0.021) mg | Tmax_Rate (VU319 60 mg oral, SAD): 3.5 (3.5, 8.5) h | Max_Rate (maximum observed excretion rate) (VU319 120 mg oral, SAD): 0.0032 (0.0025) mg/h | Total %fe (VU319 120 mg oral, SAD): 0.051 (0.026) % | Total Ae (VU319 120 mg oral, SAD): 0.061 (0.032) mg | Tmax_Rate (VU319 120 mg oral, SAD): 8.5 (3.5, 18.0) h | Max_Rate (maximum observed excretion rate) [1]: 0.0025 (0.0011) mg/h | Total Ae [1]: 0.068 (0.026) mg | Tmax_Rate [1]: 8.5 (3.5, 30) h | Max_Rate (maximum observed excretion rate) [2]: 0.005 (0.003) mg/h | Total %fe [2]: 0.075 (0.028) % | Total Ae [2]: 0.091 (0.034) mg | Tmax_Rate [2]: 6.0 (1.0, 8.5) h | Max_Rate (maximum observed excretion rate) (VU319 240 mg oral, SAD): 0.0053 (0.0024) mg/h | Total %fe (VU319 240 mg oral, SAD): 0.039 (0.017) % | Total Ae (VU319 240 mg oral, SAD): 0.093 (0.042) mg | Tmax_Rate (VU319 240 mg oral, SAD): 6.0 (3.5, 18.0) h | Max_Rate (maximum observed excretion rate) (VU319 400 mg oral, SAD): 0.0056 (0.0018) mg/h | Total %fe (VU319 400 mg oral, SAD): 0.0297 (0.015) % | Total Ae (VU319 400 mg oral, SAD): 0.12 (0.058) mg | Tmax_Rate (VU319 400 mg oral, SAD): 6.0 (3.5, 30.0) h | Max_Rate (maximum observed excretion rate) (VU319 600 mg oral, SAD): 0.0051 (0.0027) mg/h | Total %fe (VU319 600 mg oral, SAD): 0.024 (0.011) % | Total Ae (VU319 600 mg oral, SAD): 0.143 (0.065) mg | Tmax_Rate (VU319 600 mg oral, SAD): 6.0 (3.5, 42.0) h

— PMC12211128, “Safety, tolerability, pharmacokinetic and pharmacodynamic effects of the muscarinic M1 positive allosteric modulator VU0467319 for Alzheimer’s disease: a single ascending-dose study in healthy participants” (Alzheimer's Research & Therapy, 2025)
